Results as given in PMC9250534, “Synthesis and direct assay of large macrocycle diversities by combinatorial late-stage modification at picomole scale” (Nature Communications, 2022).
Numbered stars: 1 amine (or outer) side, 2 acyl side, 3 side chain; on linkers, the order of the positions; unused ones are H or OH. Bridge positions count the residues as written; N and C are the ends. Square brackets hold non-standard residues; d marks the D form. Peptide text beside a SMILES is read from it. * marks the point of attachment. 1,2,3Thiadiazole5CO(4-Me) = Cc1nnsc1C(=O)*; Cysteamide = C(CS[*:3])N[*:1]; 4Amb = NCc1ccc(C(=O)O)cc1; Isovaleryl = CC(C)CC(=O)*; Orn = NCCC[C@H](N)C(=O)O; 2Furoyl = O=C(c1ccco1)*; Bz = O=C(c1ccccc1)*; βAla = NCCC(=O)O; Mpa = O=C(O)CCS

target: T1, thrombin (Homo sapiens, UniProt P00734); assay: Thrombin inhibition screen of crude macrocycle reactions (residual thrombin activity, fluorogenic substrate Z-Gly-Gly-Arg-AMC); format: biochemical; settings: 10 µM macrocycle concentration; crude reactions, Library 1a-l; scaffold AA1-AA2-AA3 combined with 1-16 or '-'
T1 construct: consists of two polypeptide chains of 36 (light chain) and 259 amino acid
Procedure, shortened: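 Residual activity was measured as the AMC release rate after adding 50 μM Z-Gly-Gly-Arg-AMC. This followed a 10-min room-temperature preincubation of 2 nM thrombin with 10 μM single macrocycles in pH 7.4 Tris buffer (0.6% DMSO). Percent inhibition was taken against the mean slope of DMSO controls.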

| SMILES | percent residual thrombin activity [%] |
| --- | --- |
| COc1ccc(C(=O)NCCC[C@@H]2NC(=O)CCSSCCNC(=O)[C@H](Cc3ccc(O)cc3)NC(=O)c3cccc(c3)CNC2=O)cn1 [D2-B5-Y/10] | 96.9489 |
| O=C(Cc1c[nH]c2ccccc12)NCCC[C@@H]1NC(=O)CCSSCCNC(=O)[C@H](Cc2ccc(O)cc2)NC(=O)c2cccc(c2)CNC1=O [D2-B5-Y/12] | 99.266 |
| O=C1CCSSCCNC(=O)[C@H](Cc2ccc(O)cc2)NC(=O)c2cccc(c2)CNC(=O)[C@H](CCCNC(=O)c2ccc(Cl)s2)N1 [D2-B5-Y/14] | 78.2447 |
| Cc1nnsc1C(=O)NCCC[C@@H]1NC(=O)CCSSCCNC(=O)[C@H](Cc2ccc(O)cc2)NC(=O)c2cccc(c2)CNC1=O [D2-B5-Y/15] | 91.9104 |
| O=C1CCSSCCNC(=O)[C@H](Cc2ccc(O)cc2)NC(=O)c2cccc(c2)CNC(=O)[C@H](CCCNC(=O)c2ccco2)N1 [D2-B5-Y/16] | 100.852 |
| NCCC[C@@H]1NC(=O)CCSSCCNC(=O)[C@H](Cc2ccc(O)cc2)NC(=O)c2cccc(c2)CNC1=O [D2-B5-Y/-] | 110.083 |
| CC(C)[C@H]1NC(=O)c2cccc(c2)CNC(=O)[C@H](CCCNC(=O)c2c[nH]c(=O)[nH]c2=O)NC(=O)CCSSCCNC1=O [D2-B5-v/11] | 108.83 |
| CC(C)[C@H]1NC(=O)c2cccc(c2)CNC(=O)[C@H](CCCNC(=O)c2ccc(Cl)s2)NC(=O)CCSSCCNC1=O [D2-B5-v/14] | 98.5757 |
| CC(C)[C@H]1NC(=O)c2cccc(c2)CNC(=O)[C@H](CCCNC(=O)c2ccco2)NC(=O)CCSSCCNC1=O [D2-B5-v/16] | 103.718 |
| CC[C@H](C)[C@@H]1NC(=O)[C@H](CCCNC(=O)c2snnc2C)NC(=O)CCSSCCNC(=O)[C@@H]2CCCN2C1=O [D2-I-B1/15] ([Mpa][Orn](1,2,3Thiadiazole5CO(4-Me))IP-Cysteamide; disulfide 1-C) | 108.604 |
| CC[C@H](C)[C@@H]1NC(=O)[C@H](CCCNC(=O)c2ccccc2)NC(=O)CCSSCCNC(=O)CCNC1=O [D2-I-B2/1] ([Mpa][Orn](Bz)I[βAla]-Cysteamide; disulfide 1-C) | 109.798 |
| CC[C@H](C)[C@@H]1NC(=O)[C@H](CCCNC(=O)c2cnccn2)NC(=O)CCSSCCNC(=O)CCNC1=O [D2-I-B2/2] | 113.295 |
| CC[C@H](C)[C@@H]1NC(=O)[C@H](CCCNC(=O)CC(C)C)NC(=O)CCSSCCNC(=O)CCNC1=O [D2-I-B2/8] ([Mpa][Orn](Isovaleryl)I[βAla]-Cysteamide; disulfide 1-C) | 110.049 |
| CC[C@H](C)[C@@H]1NC(=O)[C@H](CCCNC(=O)COc2ccccc2)NC(=O)CCSSCCNC(=O)CCNC1=O [D2-I-B2/13] | 114.645 |
| CC[C@H](C)[C@@H]1NC(=O)[C@H](CCCNC(=O)c2ccc(Cl)s2)NC(=O)CCSSCCNC(=O)CCNC1=O [D2-I-B2/14] | 94.0704 |
| O=C1CCNC(=O)[C@H](CO)NC(=O)[C@H](CCCNC(=O)c2cnccn2)NC(=O)CCSSCCN1 [D2-S-B2/2] | 115.288 |
| COc1ccc(C(=O)NCCC[C@@H]2NC(=O)CCSSCCNC(=O)CCNC(=O)[C@H](CO)NC2=O)cn1 [D2-S-B2/10] | 107.459 |
| O=C1CCNC(=O)[C@H](CO)NC(=O)[C@H](CCCNC(=O)Cc2c[nH]c3ccccc23)NC(=O)CCSSCCN1 [D2-S-B2/12] | 110.146 |
| O=C1CCNC(=O)[C@H](CO)NC(=O)[C@H](CCCNC(=O)c2ccc(Cl)s2)NC(=O)CCSSCCN1 [D2-S-B2/14] | 105.361 |
| O=C1CCSSCCNC(=O)c2ccc(cc2)CNC(=O)[C@H](Cc2c[nH]c3ccccc23)NC(=O)[C@H](CCCNC(=O)c2ccccc2)N1 [D2-W-B3/1] ([Mpa][Orn](Bz)W[4Amb]-Cysteamide; disulfide 1-C) | 105.41 |
| O=C1CCSSCCNC(=O)c2ccc(cc2)CNC(=O)[C@H](Cc2c[nH]c3ccccc23)NC(=O)[C@H](CCCNC(=O)c2c[nH]c(=O)cn2)N1 [D2-W-B3/9] | 111.429 |
| O=C1CCSSCCNC(=O)c2ccc(cc2)CNC(=O)[C@H](Cc2c[nH]c3ccccc23)NC(=O)[C@H](CCCNC(=O)c2c[nH]c(=O)[nH]c2=O)N1 [D2-W-B3/11] | 121.031 |
| O=C(Cc1c[nH]c2ccccc12)NCCC[C@@H]1NC(=O)CCSSCCNC(=O)c2ccc(cc2)CNC(=O)[C@H](Cc2c[nH]c3ccccc23)NC1=O [D2-W-B3/12] | 112.189 |
| O=C(COc1ccccc1)NCCC[C@@H]1NC(=O)CCSSCCNC(=O)c2ccc(cc2)CNC(=O)[C@H](Cc2c[nH]c3ccccc23)NC1=O [D2-W-B3/13] | 117.613 |

| SMILES | percent residual thrombin activity [%] |
| --- | --- |
| O=C1CCSSCCNC(=O)c2ccc(cc2)CNC(=O)[C@H](Cc2c[nH]c3ccccc23)NC(=O)[C@H](CCCNC(=O)c2ccc(Cl)s2)N1 [D2-W-B3/14] | 109.796 |
| Cc1nnsc1C(=O)NCCC[C@@H]1NC(=O)CCSSCCNC(=O)c2ccc(cc2)CNC(=O)[C@H](Cc2c[nH]c3ccccc23)NC1=O [D2-W-B3/15] | 116.257 |
| NCCC[C@@H]1NC(=O)CCSSCCNC(=O)c2ccc(cc2)CNC(=O)[C@H](Cc2c[nH]c3ccccc23)NC1=O [D2-W-B3/-] ([Mpa][Orn]W[4Amb]-Cysteamide; disulfide 1-C) | 110.008 |
| O=C1CCSSCCNC(=O)[C@@H]2CCCN2C(=O)[C@H](Cc2ccc(O)cc2)NC(=O)[C@H](CCCNC(=O)c2ccco2)N1 [D2-Y-B1/16] ([Mpa][Orn](2Furoyl)YP-Cysteamide; disulfide 1-C) | 105.138 |
| C[C@H]1NC(=O)[C@H](CCCNC(=O)c2ccccc2)NC(=O)CCSSCCNC(=O)CCNC1=O [D2-a-B2/1] ([Mpa][Orn](Bz)[dA][βAla]-Cysteamide; disulfide 1-C) | 113.72 |
| COc1ccc(C(=O)NCCC[C@@H]2NC(=O)CCSSCCNC(=O)CCNC(=O)[C@@H](C)NC2=O)cn1 [D2-a-B2/10] | 113.133 |
| C[C@H]1NC(=O)[C@H](CCCNC(=O)Cc2c[nH]c3ccccc23)NC(=O)CCSSCCNC(=O)CCNC1=O [D2-a-B2/12] | 109.862 |
| C[C@H]1NC(=O)[C@H](CCCNC(=O)c2ccc(Cl)s2)NC(=O)CCSSCCNC(=O)CCNC1=O [D2-a-B2/14] | 108.542 |
| CC(C)CC(=O)NCCCC[C@@H]1NC(=O)[C@H](Cc2ccccc2)NC(=O)CCSSCCNC(=O)[C@H]2CCCN(C2)C1=O [F-D1-B4/8] | 108.059 |
| O=C(COc1ccccc1)NCCCC[C@@H]1NC(=O)[C@H](Cc2ccccc2)NC(=O)CCSSCCNC(=O)[C@H]2CCCN(C2)C1=O [F-D1-B4/13] | 109.797 |
| CC(C)CC(=O)NCCC[C@@H]1NC(=O)CCNC(=O)[C@H](Cc2cnc[nH]2)NC(=O)CCSSCCNC1=O [H-B2-D2/8] | 108.958 |
| O=C1CCNC(=O)[C@H](Cc2c[nH]cn2)NC(=O)CCSSCCNC(=O)[C@H](CCCNC(=O)c2c[nH]c(=O)cn2)N1 [H-B2-D2/9] | 106.277 |
| O=C1CCNC(=O)[C@H](Cc2c[nH]cn2)NC(=O)CCSSCCNC(=O)[C@H](CCCNC(=O)c2c[nH]c(=O)[nH]c2=O)N1 [H-B2-D2/11] | 112.021 |
| O=C1CCNC(=O)[C@H](Cc2c[nH]cn2)NC(=O)CCSSCCNC(=O)[C@H](CCCNC(=O)c2ccc(Cl)s2)N1 [H-B2-D2/14] | 94.6113 |
| O=C1CCNC(=O)[C@H](Cc2c[nH]cn2)NC(=O)CCSSCCNC(=O)[C@H](CCCNC(=O)c2ccco2)N1 [H-B2-D2/16] | 110.75 |
| COc1ccc(C(=O)NCCCC[C@@H]2NC(=O)c3cccc(c3)CNC(=O)[C@H](Cc3cnc[nH]3)NC(=O)CCSSCCNC2=O)cn1 [H-B5-D1/10] | 98.3606 |
| NCCCC[C@@H]1NC(=O)c2cccc(c2)CNC(=O)[C@H](Cc2cnc[nH]2)NC(=O)CCSSCCNC1=O [H-B5-D1/-] | 101.253 |
| CC[C@H](C)[C@@H]1NC(=O)CCSSCCNC(=O)[C@H](CCCCNC(=O)c2cc(C)on2)NC(=O)c2cccc(c2)CNC1=O [I-B5-D1/3] | 104.965 |
| CC[C@H](C)[C@@H]1NC(=O)CCSSCCNC(=O)[C@H](CCCCNC(=O)c2c[nH]c(=O)[nH]c2=O)NC(=O)c2cccc(c2)CNC1=O [I-B5-D1/11] | 106.327 |
| CC[C@H](C)[C@@H]1NC(=O)CCSSCCNC(=O)[C@H](CCCCN)NC(=O)c2cccc(c2)CNC1=O [I-B5-D1/-] | 103.325 |
| CC[C@H](C)[C@@H]1NC(=O)CCSSCCNC(=O)[C@H]2CCCN(C2)C(=O)[C@H](CCCCNC(=O)c2cnccn2)NC1=O [I-D1-B4/2] | 114.834 |
| CC[C@H](C)[C@@H]1NC(=O)CCSSCCNC(=O)[C@H]2CCCN(C2)C(=O)[C@H](CCCCNC(=O)c2c[nH]c(=O)[nH]c2=O)NC1=O [I-D1-B4/11] | 113.791 |
| CC[C@H](C)[C@@H]1NC(=O)CCSSCCNC(=O)[C@H]2CCCN(C2)C(=O)[C@H](CCCCN)NC1=O [I-D1-B4/-] | 114.483 |
